# Assay results taken from article PMC7180842, “Efficacy of Topical Treatment with (−)-Epigallocatechin Gallate, A Green Tea Catechin, in Mice with Cutaneous Leishmaniasis” (Molecules, 2020).
# What was measured:
# [1] = test system: promastigotes of L. (L.) amazonensis; parameters: method as in earlier work; conditions: cited from earlier work
# [2] = test system: promastigotes of L. (V.) braziliensis; parameters: method as in earlier work; conditions: cited from earlier work
# [3] = Macrophage cytotoxicity screening (MTT assay); type: cell-based; conditions: human, THP1 cells differentiated to macrophages
# Procedure: The cytotoxicity of EGCG, EGC, GCG and GC was evaluated in a human monocytic cell line derived from an acute monocytic leukemia patient (THP1). The cells (3 x 10^4/150 µL) were first differentiated to macrophages with 10 ng/mL of phorbol myristate acetate for 24 h at 37 °C in a 5% CO2 95% air mixture. […] The controls were incubated with RPMI 1640 medium (Gibco, Grand Island, NY, USA). The viability of the macrophages was determined by the MTT assay (Nacalai tesque, Kyoto, Japan). Briefly, 50 μL of MTT (2 mg/mL) was added to each well and, after 4 h of incubation at 37 °C, the reaction was stopped dissolving the formazan crystals with 100 μL/well of dimethyl sulfoxide (DMSO). The relative amount of formazan produced by viable macrophages was determined using a spectrophotometer at 570 nm. The percentage of viable cells was calculated according to the formula: OD treated culture–OD blank x 100/OD control–OD blank as was described previously. The CC50 was calculated for each compound as the concentration of compound that reduces cell growth by 50%.
# (§1) The GraphPad Prism 5.0 software (GraphPad Software Inc., San Diego, CA, USA) was employed to carry out calculations of the IC50 and CC50 values by a nonlinear regression. Multiple comparisons of lesions’ sizes between groups were made with a one-way analysis of variance (ANOVA) followed by Tukey test. The statistical analysis of the parasite burden data obtained by the limiting dilution assay was done using ELIDA software, which analyses data through the Poisson distribution and by the X^2 test. p < 0.05 was considered significant. The data are representative of two separate experiments in vivo.
# [4] = test system: intracellular amastigotes of L. (L.) amazonensis; experiment: In vitro antiamastigote activity in infected THP1-derived macrophages; type: cell-based, Leishmania (Leishmania) amazonensis; conditions: for SI (selectivity index, ratio CC50 THP1/IC50 Leishmania): CC50 THP1/IC50 intracellular amastigotes; for SI (selectivity index, ratio CC50 THP1/IC50 Leishmania) / IC50: 48 h; for IC50: Leishmania amazonensis, Macrophage; for IC50 / Intracellular Amastigotes IC50: macrophages infected with L. (L.) amazonensis, 48 h of treatment, 34 °C
# Procedure: THP1 cells (2 × 10^5/mL) were differentiated to macrophages with 10 ng/mL of phorbol myristate acetate and placed in Lab-Tek eight chamber slides for 24 h at 37 °C in a 5% CO2 95% air mixture. Adherent macrophages were infected with L. (L.) amazonensis at a ratio of four parasites per macrophage and incubated at 34 °C in a 5% CO2 95% air mixture during 24 h. After infection, the cells were washed with pre-warmed PBS to remove free parasites. A new medium with different concentrations of EGCG, EGC, GCG and GC (2.3 to 130 µg/mL) and Gl (2.5 to 80 µg Sb^v/mL) was added to each well. The positive controls were infected cells cultured under the presence of complete RPMI-1640 medium. The chambers were returned to the CO2 incubator for an additional 48 h at 34 °C, 5% CO2 [17]. The cells were stained with Diff Quik (Biopur S.R.L., Rosario, Argentina), and the results were expressed as the concentration of compound to inhibit the 50% of the growth (IC50) of the intracellular amastigotes.
# as §1
# [5] = test system: intracellular amastigotes of L. (L.) amazonensis; parameters: method as in PMID 22735546; conditions: infected macrophage cultures incubated at 37 °C; cited from earlier work
# L. (L.) amazonensis = experiment: In vivo cutaneous leishmaniasis model, infected ear dermis of BALB/c mice; conditions: 18 days; for Parasite burden inhibition: once a day, six times a week, from week six postinfection, vs control group; for Lesion size: week 10, vs control group, p < 0.05
# Procedure: Female BALB/c mice of six weeks old (weight, 20 to 25 g) were randomly separated into three groups of five animals and were inoculated by intradermal via in their right ear with 5 × 10^3 (20 µL) infective promastigotes of L. (L.) amazonensis (late log phase of growth). The animals were housed in groups of five in metal cages under a controlled environmental condition (12:12 h light/dark cycle and 23 °C room temperature) with food and water ad libitum.
# At week six postinfection, mice received the treatments as follow: group 1, treated with EGCG in USP hydrophilic ointment (15%), group 2, treated with 120 mg Sb^v/kg/d of Gl administered by intraperitoneal route, and group 3, control mice (without treatment). EGCG was uniformly mixed in USP hydrophilic cream (Yoshida Pharmaceutical Co., Saitama, Japan) (15% w/w) and was topically applied (20 mg/lesion). EGCG ointment was prepared daily. The treatments were given during 18 days, once a day, six times a week, until the end of the treatments (9th week). The efficacy of treatments was determined by measuring the lesions’ sizes (mm^2) with a digital caliper weekly (150 mm; Digimess) and by quantifying the parasite burden with the limit dilution assay as was described previously.
# as §1
# L. (L.) donovani = test system: L. (L.) donovani; parameters: method as in PMID 16569852; conditions: cited from earlier work
# [6] = test system: intracellular amastigotes of L. (V.) braziliensis; parameters: method as in PMID 25144225; conditions: infected macrophage cultures incubated at 37 °C; cited from earlier work
# L. (V.) braziliensis = test system: L. (V.) braziliensis; parameters: method as in PMID 24106750, PMID 22735546; conditions: EGCG oral treatment, BALB/c mice; cited from earlier work
# [7] = intraperitoneal 120 mg Sb^v/kg/d
Compound,Leishmanicidal activity / growth of promastigotes [1],Leishmanicidal activity / growth of promastigotes [2],CC50 at 48 h [3],"SI (selectivity index, ratio CC50 THP1/IC50 Leishmania) [4]",IC50 [4],other results
Oc1cc(O)c2c(c1)O[C@H](c1ccc(O)c(O)c1)[C@H](O)C2 [(−)-epicatechin],did not inhibit the growth,did not inhibit the growth,–,–,–,–
"Oc1cc(O)c2c(c1)O[C@@H](c1cc(O)c(O)c(O)c1)[C@H](O)C2 [GC, (−)-gallocatechin]",leishmanicidal activity,leishmanicidal activity,115 ± 37.1 µg/mL,1.2,93.5 ± 5 µg/mL,–
"O=C(O[C@@H]1Cc2c(O)cc(O)cc2O[C@@H]1c1cc(O)c(O)c(O)c1)c1cc(O)c(O)c(O)c1 [EGCG, (−)-Epigallocatechin gallate]",leishmanicidal activity,leishmanicidal activity,88.9 ± 21.9 µg/mL,1.5,< 59.6 µg/mL,"SI (selectivity index, ratio CC50 THP1/IC50 Leishmania) ([4]; listed as (−)-Epigallocatechin gallate): > 1; Intracellular Amastigotes IC50 [4]: 59.6 ± 9.3 µg/mL; IC50 against intracellular amastigotes [5]: 0.74 µg/mL; Parasite burden inhibition (L. (L.) amazonensis; topical 15% EGCG in USP hydrophilic ointment, 20 mg/lesion): 80.4%; Lesion size (L. (L.) amazonensis; topical 15% EGCG): significant reduction of the lesion size; IC50 against L. (L.) donovani (L. (L.) donovani): 19.1 µg/mL; IC50 against intracellular amastigotes [6]: 1.57 µg/mL; Parasite burden inhibition (L. (V.) braziliensis): 92.1%"
O=C(O[C@@H]1Cc2c(O)cc(O)cc2O[C@H]1c1ccc(O)c(O)c1)c1cc(O)c(O)c(O)c1 [(−)-catechin gallate],did not inhibit the growth,did not inhibit the growth,–,–,–,–
Meglumine antimoniate [reference compound],–,–,–,–,–,Parasite burden inhibition (L. (L.) amazonensis; [7]): 85.1%; Lesion size (L. (L.) amazonensis; [7]): reduced the lesion size
"Oc1cc(O)c2c(c1)O[C@H](c1cc(O)c(O)c(O)c1)[C@H](O)C2 [EGC, (−)-epigallocatechin]",leishmanicidal activity,leishmanicidal activity,121 ± 20 µg/mL,≥2.7,< 59.6 µg/mL,"SI (selectivity index, ratio CC50 THP1/IC50 Leishmania) ([4]; listed as (−)-epigallocatechin): > 1; Intracellular Amastigotes IC50 [4]: ≥44.3 µg/mL"
Oc1cc(O)c2c(c1)O[C@H](c1ccc(O)c(O)c1)[C@@H](O)C2 [(+)-catechin],did not inhibit the growth,did not inhibit the growth,–,–,–,–
"O=C(O[C@@H]1Cc2c(O)cc(O)cc2O[C@H]1c1cc(O)c(O)c(O)c1)c1cc(O)c(O)c(O)c1 [GCG, (−)-gallocatechin gallate]",leishmanicidal activity,leishmanicidal activity,94.9 ± 11.8 µg/mL,1.4,67.5 ± 9.5 µg/mL,IC50 against L. (L.) donovani (L. (L.) donovani): 8.9 µg/mL
